How the values were obtained:
CAR-expressing T cells = assay: Chronic stimulation assay, concurrent treatment: tumor cell numbers, spheroid volume and cytokines during re-challenge of CAR-expressing T cells (FIGS. 5A-6B); type: cell-based, human
Description: FIGS. 5A-5B and 6A-6B show cytolytic activity and cytokine production during re-challenge of CAR-expressing T cells chronically stimulated in the presence of Compound 17 (concurrent treatment).
These observations were made using a chronic stimulation assay to render T cells (e.g. CAR T cells) hypofunctional (e.g. reduced cytolysis and IL-2 secretion). Using this model, engineered T cells (e.g. CAR T cells or eTCR T cells) were examined to assess impact of DGKi, such as Compound 17, on function of the engineered T cells when present during (concurrent) or following (rescue) exposure to conditions leading to a hypofunctional, exhaustive state.

anti-CD19 CAR-T cells = assay: CAR-T cell viability; type: cell-based, human; conditions: acute stimulation assays
Description: T cell compositions containing T cells expressing an exemplary anti-CD19 CAR were generated from leukapheresis samples from two healthy human adult donors by a process that included immunoaffinity-based selection of T cells by separately selecting CD4+ and CD8+ cells from the samples, resulting in two compositions enriched for CD4+ and CD8+ cells, respectively, per donor. Cells of the enriched CD4+ and CD8+ compositions were separately activated with anti-CD3/anti-CD28 beads and subjected to lentiviral transduction with a vector encoding an anti-CD19 CAR. […]
Prior to use, the cryopreserved CD4+ and CD8+ CAR-engineered cell compositions were thawed and combined at approximately a 1:1 CD4:CD8 ratio for each donor to prepare a combined CD4+ CAR+ and CD8+ CAR+ T cell composition. The effects of treatment with Compound 17 at various concentrations (0.1 nM, 1 nM, 10 nM, 100 nM, or 1000 nM) added at day 0 during stimulation of the combined CAR-T cell composition with a plate-bound CAR-specific anti-idiotypic antibody (see, e.g., WO2018/023100) or during co-culture with CD19-expressing cells was then assessed.

[1] = tested on: anti-CD19 CAR-T cells with A549.CD19 and Granta-519 tumor spheroids; assay: Cytokine production of chronically stimulated, concurrently treated CAR-T cells, 3D spheroids; type: cell-based, human; conditions: concurrent treatment during chronic stimulation, five days
Procedure: To simulate conditions of chronic stimulation, approximately 20,000 anti-CD19 CAR-expressing T cells of a combined CAR-T cell composition produced as described in Example 2 from two healthy adult donors were incubated with 30 µg/mL of plate-bound CAR-specific anti-idiotypic antibody (see, e.g., WO2018/023100) at 37 °C for a period of seven days. During this seven-day period, engineered CAR T cells were concurrently treated with Compound 17(0.1-1000 nM) or a vehicle control added at day 0.
To further assess activity of chronically stimulated cell, the chronically stimulated CAR-T cells that had been concurrently treated with DGKi were incubated with A549 CD19+ tumor spheroids or Granta-519 tumor spheroids to rechallenge the CAR-T cells at an effector to target ratio of 1:2 for up to 14 days. The tumor spheroids were engineered to express a red fluorescent dye to permit monitoring of tumor cell lysis by microscopy during the assay.
Supernatant was collected at day 5 from the above tumor spheroid cultures with chronically stimulated CAR-expressing T cells. Cytokine production was measured from the supernatant by meso scale discovery (MSD) analysis of the collected cell supernatants. […] Duplicate values for cell compositions manufactured from the two different healthy donors are shown.

Granta-519 cells = assay: Rescue treatment: cytolytic activity of chronically stimulated CAR-T cells, 2D, Granta-519; type: cell-based, human; conditions: higher concentrations, 2D co-culture
[2] = tested on: anti-CD19 CAR-T cells with K562.CD19, Granta-519 and Raji cells; assay: Rescue treatment: cytokine production of chronically stimulated CAR-T cells, 2D co-culture; type: cell-based, human; conditions: 48 h
eTCR T cells = assay: Rescue treatment: proliferation of chronically stimulated eTCR T cells on re-stimulation; type: cell-based, human; conditions: 100 nM, 7 day re-stimulation with 20 μg/mL anti-Vbeta
Description: Primary human CD4+ and CD8+ T cells were isolated from healthy donors by immunoaffinity-based methods. The isolated CD4+ and CD8+ T cells were combined and stimulated with an anti-CD3/anti-CD28 reagent, and then were transduced with a lentiviral vector encoding an anti-human papillomavirus 16 (anti-HPV16) eTCR. The nucleotide sequences encoding the beta chain and the alpha chain of the eTCR were separated by a sequence encoding a 2A ribosome skip element. Following transduction, the cells were cultured in media containing human serum and cytokines for 9-10 days prior to further assessment.
In another experiment to assess activity of the DGKi to rescue or reverse exhaustion, eTCR T cells were chronically stimulated for 6 days as described above in the absence of Compound 17. Then, chronically stimulated eTCR T cells or freshly thawed eTCR T cells that had not been chronically stimulated were re-stimulated with 20 μg/mL plate-bound antibody against the Vbeta chain of the eTCR in the presence of 100 nM Compound 17 for 7 days. As a control, chronically stimulated eTCR T cells were re-stimulated in the absence of Compound 17 for 7 days. At the end of the 7 day re-stimulation, cell counts were determined.

[3] = tested on: Raji lymphoma tumor cells; assay: In vivo anti-tumor effect of dosing regimens with anti-CD19 CAR T cells, Raji-rFluc NSG mice (Example 6)
Procedure: The in vivo anti-tumor effects of different dosing regimens for Compound 17 in combination with anti-CD19 CAR T cells were assessed.
Following CAR-T cell administration, mice received one of three different Compound 17 dosing regimens or a vehicle control (n=8 per group). Specifically, mice received Compound 17 or vehicle control once daily (i) on Days 1-14 (“Early”), (ii) on Days 14-42 (“Delayed”), or (iii) on Days 1-28 (“Continuous”) of the combination therapy. All doses of Compound 17 were 0.3 mg/kg and were administered orally. […] Flow cytometry for assessing CD4:CD8 ratio was performed at Day 15.

[4] = 0.3 mg/kg oral once daily from Day 1, relative to vehicle

SMILES: CC[C@H]1CN([C@@H](CC)c2ccc(C(F)(F)F)cc2)[C@H](CC)CN1c1nc(=O)n(C)c2ccc(C#N)nc12 [Compound 17, 4-((2S,5R)-2,5-diethyl-4-((S)-1-(4-(trifluoromethyl)phenyl)propyl)piperazin-1-yl)-1-methyl-2-oxo-1,2-dihydropyrido[3,2-d]pyrimidine-6-carbonitrile]
- effect of concurrent treatment on hypofunctionality upon rechallenge with antigen (CAR-expressing T cells): reversed activity and phenotypes associated with T cell hypofunctionality and preserved more effector function
- T cell viability (anti-CD19 CAR-T cells): no impact of Compound 17 on T cell viability was observed
- production of IFNγ, IL-2 and TNFα [1]: dose-dependent increase in production of all three cytokines
- cytolytic activity of CAR T cells against Granta-519 cells (Granta-519 cells): improved the cytolytic activity of CAR T cells against K562.CD19 and Granta-519 cells
- production of IFNγ, IL-2 and TNFα [2]: dose-dependent increase in production of all three cytokines
- proliferation of chronically stimulated eTCR T cells (cell counts) (eTCR T cells): increased proliferation of the eTCR T cells
- tumor suppression (tumor control index), Early regimen ([3]; 0.3 mg/kg oral once daily Days 1-14 with CAR T cells, relative to vehicle): enhanced tumor suppression
- survival, Continuous regimen ([3]; 0.3 mg/kg oral once daily Days 1-28 with 1×10^6 CAR T cells): improved survival
- tumor burden, Continuous regimen ([3]; 0.3 mg/kg oral once daily Days 1-28 with CAR T cells): reduced tumor burden
- tumor suppression (tumor control index), Continuous regimen ([3]; 0.3 mg/kg oral once daily Days 1-28 with CAR T cells, relative to vehicle): enhanced tumor suppression
- tumor suppression (tumor control index), Delayed regimen ([3]; 0.3 mg/kg oral once daily Days 14-42 with CAR T cells, relative to vehicle): did not
- CAR T cell expansion, Day 15, Early or Continuous regimen [3, 4]: increased CAR T cell expansion
- CD4:CD8 ratio, Day 15, Early or Continuous regimen [3, 4]: increase in CD4:CD8 ratio
- CAR T cell expansion and CD4:CD8 ratio, Day 15, Delayed regimen ([3]; single 0.3 mg/kg oral dose, relative to vehicle): did not
